# Patent publication US10334851B2, “Herbicidal isoxazolo[5,4-B]pyridines” (BASF SE, priority 2010, dated 2019)
# What was measured:
# Format in all cases: in vivo
# [1] = tested on: Amaranthus retroflexus L.; test: Greenhouse post-emergence treatment of Amaranthus retroflexus L. (pigweed); conditions: application rate 1.0 kg/ha; for damage: scale 0 to 100; for pest or weed control at 1000 g/ha: scale 0 to 100, read-out: damage
# Excerpt: (§1) The seeds of the test plants were sown separately for each species. For the post-emergence treatment, the test plants were first grown to a height of 3 to 15 cm, depending on the plant habit, and only then treated with the active ingredients which had been suspended or emulsified in water. For this purpose, the test plants were either sown directly and grown in the same containers, or they were first grown separately as seedlings and transplanted into the test containers a few days prior to treatment. Depending on the species, the plants were kept at 10-25° C. or 20-35° C. The test period extended over 2 to 4 weeks. During this time, the plants were tended, and their response to the individual treatments was evaluated. Evaluation was carried out using a scale from 0 to 100. 100 means no emergence of the plants, or complete destruction of at least the aerial moieties, and 0 means no damage, or normal course of growth. A good herbicidal activity is given at values of at least 80 and a very good herbicidal activity is given at values of at least 90. The plants used in the greenhouse experiments belonged to the following species: [table]
# Chenopodium album = test: Greenhouse post-emergence treatment of Chenopodium album (fat-hen); conditions: application rate 1.0 kg/ha; for damage: scale 0 to 100; for pest or weed control at 1000 g/ha: scale 0 to 100, read-out: damage
# Excerpt: as §1
# Abutilon theophrasti = test: Greenhouse post-emergence treatment of Abutilon theophrasti (velvetleaf); conditions: application rate 3.0 kg/ha, scale 0 (no damage) to 100 (complete destruction); for pest or weed control at 3000 g/ha: Abutilon theophrasti
# Excerpt: as §1
# Setaria faberi = test: Greenhouse post-emergence treatment of Setaria faberi (giant foxtail); conditions: application rate 3.0 kg/ha; for pest or weed control at 3000 g/ha: scale 0 to 100, read-out: damage; for damage: scale 0 to 100
# Excerpt: as §1
compound,measurement,setting,value
Cc1noc2nc(C3CC3)cc(C(=O)OCC(F)F)c12 [I.1.65],damage,[1],100%
same,damage,Chenopodium album,100%
O=C(O)c1cc(C2CC2)nc2onc(-c3ccc(C(F)(F)F)cc3)c12 [I.2.18],damage,Abutilon theophrasti,100%
COC(=O)c1cc(C2CC2)nc2onc(C3CC3)c12 [I.8.4],pest or weed control at 1000 g/ha,[1],100%
same,pest or weed control at 1000 g/ha,Chenopodium album,100%
CC(C)Cc1noc2nc(C3(F)CC3)cc(C(=O)O)c12 [I.7.68],damage,[1],100%
same,damage,Chenopodium album,100%
O=C(O)c1cc(C2(F)CC2)nc2onc(C3(F)CC3)c12,pest or weed control at 3000 g/ha,Setaria faberi,98%
CCCCSC(=O)c1cc(C2CC2)nc2onc(C)c12 [I.1.81],damage,[1],98%
same,damage,Chenopodium album,98%
CCOc1noc2nc(C3CC3)cc(C(=O)O)c12 [I.2.54],pest or weed control at 1000 g/ha,[1],100%
same,pest or weed control at 1000 g/ha,Chenopodium album,100%
Cc1noc2nc(C3CC3)cc(C(=O)SCc3ccccc3)c12 [I.1.79],damage,[1],98%
same,damage,Chenopodium album,85%
Cc1noc2nc3c(c(C(=O)O)c12)CCC3 [I.8.1],pest or weed control at 3000 g/ha,Abutilon theophrasti,100%
O=C(O)c1cc(C2CC2)nc2onc(CCC3CCCCC3)c12 [I.2.30],pest or weed control at 3000 g/ha,Abutilon theophrasti,100%
O=C(O)c1cc(C2CC2)nc2onc(-c3ccc(Cl)cc3)c12 [I.2.17],damage,Abutilon theophrasti,100%
O=C(O)c1cc(C2CC2(F)F)nc2onc(-c3ccccc3)c12 (stereo not drawn) [I.7.56],damage,[1],80%
same,damage,Chenopodium album,90%
CC(C)c1ccc(-c2noc3nc(C4CC4)cc(C(=O)O)c23)cc1 [I.2.66],damage,[1],100%
same,damage,Chenopodium album,100%
C=COCCOC(=O)c1cc(C2CC2)nc2onc(C)c12 [I.1.75],damage,Abutilon theophrasti,100%
O=C(O)c1cc(C2CC2)nc2onc(-c3cccc(F)c3)c12 [I.2.31],damage,Abutilon theophrasti,100%
CCc1cc(C(=O)O)c2c(C)noc2n1 [I.5.4],pest or weed control at 3000 g/ha,Abutilon theophrasti,85%
CCc1noc2nc(C3(F)CC3)cc(C(=O)O)c12 [I.7.90],pest or weed control at 1000 g/ha,[1],100%
same,pest or weed control at 1000 g/ha,Chenopodium album,100%
O=C(O)c1cc(C2CC2)nc2onc(CC3CCCC3)c12 [I.2.27],pest or weed control at 3000 g/ha,Abutilon theophrasti,100%
CC(C)(C)c1ccc(-c2noc3nc(C4CC4)cc(C(=O)O)c23)cc1 [I.2.71],damage,[1],100%
same,damage,Chenopodium album,100%
CCOCCOC(=O)c1cc(C2CC2)nc2onc(C)c12 [I.1.69],damage,Abutilon theophrasti,100%
COC(=O)c1cc(C2CC2)nc2onc(C(F)(F)F)c12 [I.4.6],pest or weed control at 3000 g/ha,Setaria faberi,80%
CSC(=O)c1cc(C2CC2)nc2onc(CC(C)(C)C)c12 [I.4.45],damage,[1],100%
O=C(O)c1cc(C2CC2)nc2onc(CCCc3ccccc3)c12 [I.2.37],damage,Abutilon theophrasti,90%
COc1ccccc1-c1cc(C(=O)O)c2c(C(C)C)noc2n1 [I.7.7],damage,Setaria faberi,85%
NC(=O)c1cc(C2CC2)nc2onc(C3CC3)c12 [I.4.63],pest or weed control at 1000 g/ha,[1],100%
same,pest or weed control at 1000 g/ha,Chenopodium album,100%
COC(=O)c1cc(C2CC2)nc2onc(C3CCC3)c12 [I.4.4],pest or weed control at 3000 g/ha,Abutilon theophrasti,100%
CCOc1ccc(-c2noc3nc(C4CC4)cc(C(=O)O)c23)cc1 [I.2.62],damage,[1],100%
same,damage,Chenopodium album,100%
CSC(=O)c1cc(C2CC2)nc2onc(-c3ccc(F)cc3)c12 [I.4.47],damage,[1],95%
COc1noc2nc(C3CC3)cc(C(=O)O)c12 [I.2.53],pest or weed control at 1000 g/ha,[1],100%
same,pest or weed control at 1000 g/ha,Chenopodium album,100%
CC(C)(C)Oc1noc2nc(C3CC3)cc(C(=O)O)c12 [I.2.58],pest or weed control at 1000 g/ha,[1],100%
same,pest or weed control at 1000 g/ha,Chenopodium album,100%
CCCc1noc2nc(C)cc(C(=O)O)c12 [I.7.39],damage,Abutilon theophrasti,100%
O=C(O)c1cc(C2CC2(F)F)nc2onc(C3CC3)c12 (stereo not drawn) [I.7.55],pest or weed control at 1000 g/ha,[1],100%
same,pest or weed control at 1000 g/ha,Chenopodium album,100%
CC(C)c1noc2nc(-c3ccc(F)cc3)cc(C(=O)O)c12 [I.7.4],damage,Setaria faberi,80%
CCc1ccc(-c2noc3nc(C4CC4)cc(C(=O)O)c23)cc1 [I.2.61],damage,[1],100%
same,damage,Chenopodium album,100%
Cc1cc(C(=O)O)c2c(C(C)C)noc2n1 [I.7.10],pest or weed control at 3000 g/ha,Abutilon theophrasti,100%
O=C(O)c1cc(C2CC2)nc2onc(-c3cc(F)cc(F)c3)c12 [I.2.44],damage,Abutilon theophrasti,100%
Cc1cc(C(=O)O)c2c(CC(C)(C)C)noc2n1 [I.7.41],damage,Abutilon theophrasti,100%
O=C(O)c1cc(C2(F)CC2)nc2onc(-c3ccccc3)c12 [I.7.62],damage,[1],100%
same,damage,Chenopodium album,100%
O=C(O)c1cc(C2CC2)nc2onc(-c3ccc(F)cc3)c12 [I.2.51],damage,[1],100%
same,damage,Chenopodium album,100%
